According to ChEMBL document CHEMBL1201862, “PubChem BioAssay data set” (2004):
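A five-concentration, 48-hour dose response in 96-well plates underlies each endpoint, interpolated linearly between surrounding concentrations. Abbreviation: GI50, concentration required for 50% inhibition of growth.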 The source made the active and inactive calls. Cut-off read from the data, not from the text of the source: active = GI50 up to about 1.1 µM and inactive = higher.

Tests used:
Assay in all cases: NCI tumour cell line growth inhibition, 48 h
DMS-273 = system: DMS-273
SNB-78 = system: SNB-78
RXF 631 = system: RXF 631
LXFL 529 = system: LXFL 529
DMS-114 = system: DMS-114
DLD-1 = system: DLD-1
KM-20L2 = system: KM-20L2
HOP-18 = system: HOP-18
XF498 = system: XF498

Measured: GI50

CCOC(=O)C1Oc2ccc([N+](=O)[O-])c3c2C1(O)CCC3 (stereo unspecified)
inactive: DMS-273 > 100 µM | SNB-78 > 100 µM | RXF 631 > 100 µM | LXFL 529 > 100 µM | DMS-114 > 100 µM | DLD-1 > 100 µM

COC(=O)c1cc(Br)c(Br)n1C
inactive: DMS-273 > 100 µM | SNB-78 > 100 µM | KM-20L2 > 100 µM | RXF 631 > 100 µM | LXFL 529 > 100 µM | HOP-18 > 100 µM | DMS-114 > 100 µM | XF498 > 100 µM | DLD-1 81.8 µM

CC(C)(C)OC(=O)NC(CO)c1cccc(OCc2ccccc2)c1 (stereo unspecified)
inactive: DMS-273 53.2 µM | SNB-78 83.4 µM | KM-20L2 > 100 µM | LXFL 529 > 100 µM | HOP-18 > 100 µM | DMS-114 23.1 µM | XF498 > 100 µM | DLD-1 > 100 µM

COC1=CC(=O)C2C(C1=O)C(c1ccc(Cl)cc1)[C@@H]2C (stereo partly specified)
inactive: DMS-273 41 µM | SNB-78 36.8 µM | KM-20L2 51.1 µM | LXFL 529 17.5 µM | HOP-18 12.2 µM | DMS-114 21.5 µM | XF498 18.3 µM | DLD-1 25.9 µM

O=C(O)CCSC(=O)Nc1cccc2ccccc12
inactive: DMS-273 > 100 µM | SNB-78 > 100 µM | KM-20L2 > 100 µM | RXF 631 > 100 µM | LXFL 529 > 100 µM | HOP-18 > 100 µM | DMS-114 > 100 µM | XF498 > 100 µM | DLD-1 > 100 µM

Cc1nn2c(=O)n(-c3cccc(-n4nnc5c(-c6ccccc6)c(C)nn5c4=O)c3C)nnc2c1-c1ccccc1
inactive: DMS-273 66.8 µM | SNB-78 82.2 µM | KM-20L2 19.5 µM | LXFL 529 24.7 µM | HOP-18 4.94 µM | DMS-114 13.8 µM | XF498 20.9 µM | DLD-1 22.8 µM

C=C(C)C1CCC2(C)CC1c1c(c(C)cc3c1[nH]c1ccccc13)O2 (stereo unspecified)
inactive: DMS-273 > 25 µM | KM-20L2 > 25 µM | LXFL 529 > 25 µM | DMS-114 > 25 µM | XF498 > 25 µM | DLD-1 > 25 µM

COc1ccc([C@H]2CC(=O)N3CCCC3N2)cc1 (stereo partly specified)
inactive: DMS-273 > 100 µM | SNB-78 > 100 µM | KM-20L2 > 100 µM | LXFL 529 > 100 µM | HOP-18 43 µM | DMS-114 > 100 µM | XF498 > 100 µM | DLD-1 > 100 µM

O=C(Cc1ccccc1)NN1C(=O)C(Cl)C1c1ccc(O)cc1 (stereo unspecified)
inactive: DMS-273 > 100 µM | KM-20L2 > 100 µM | HOP-18 > 100 µM | DMS-114 > 100 µM | DLD-1 > 100 µM

Nc1ccc(C(=O)N/C(=C\c2cccc([N+](=O)[O-])c2)c2nc3c4c(ccc3[nH]2)C(=O)c2ccccc2C4=O)cc1
inactive: DMS-273 27.5 µM | SNB-78 > 100 µM | KM-20L2 > 100 µM | RXF 631 29.9 µM | LXFL 529 16.5 µM | HOP-18 11 µM | DMS-114 8.18 µM | XF498 > 100 µM | DLD-1 11.2 µM

CC1CCC(O)C(C(O)CC2CC(=O)N(C)C(=O)C2)C1 (stereo unspecified)
inactive: DMS-273 > 100 µM | SNB-78 > 100 µM | KM-20L2 > 100 µM | RXF 631 > 100 µM | LXFL 529 > 100 µM | HOP-18 > 100 µM | DMS-114 > 100 µM | XF498 > 100 µM | DLD-1 > 100 µM

Cc1cn(C2CC(n3cncn3)C(C(C)O)O2)c(=O)[nH]c1=O (stereo unspecified)
inactive: DMS-273 > 100 µM | SNB-78 > 100 µM | KM-20L2 > 100 µM | LXFL 529 > 100 µM | HOP-18 > 100 µM | DMS-114 > 100 µM | XF498 > 100 µM | DLD-1 > 100 µM

CCCCCCCCCC(=O)Oc1cccc2onc(C)c12
inactive: DMS-273 > 100 µM | SNB-78 > 100 µM | KM-20L2 > 100 µM | RXF 631 > 100 µM | LXFL 529 > 100 µM | HOP-18 > 100 µM | DMS-114 > 100 µM | DLD-1 > 100 µM

O=NN(CCCl)C(=O)N[C@H]1CC[C@@H](C(=O)O)CC1
inactive: DMS-273 > 100 µM | SNB-78 > 100 µM | KM-20L2 > 100 µM | RXF 631 > 100 µM | LXFL 529 > 100 µM | HOP-18 > 69.5 µM | DMS-114 52.7 µM | XF498 > 100 µM | DLD-1 > 100 µM

O=C(c1ccccc1)C(c1ccccc1)C1(O)C(=O)Nc2c(Cl)ccc(Cl)c21 (stereo unspecified)
inactive: DMS-273 14.4 µM | SNB-78 25.5 µM | KM-20L2 34.2 µM | LXFL 529 17.2 µM | HOP-18 24.2 µM | DMS-114 17 µM | DLD-1 18.2 µM

C/C(CN1C(=O)c2ccccc2C1=O)=N\NS(C)(=O)=O
inactive: DMS-273 > 100 µM | SNB-78 > 100 µM | KM-20L2 > 100 µM | LXFL 529 > 100 µM | HOP-18 > 100 µM | DMS-114 > 100 µM | XF498 > 100 µM | DLD-1 > 100 µM

C=CCC1([C@H](C)[C@@H](OC(C)=O)c2cc(OC)c(OC)c(OC)c2)C[C@@H](OC)CCC1=O (stereo partly specified)
inactive: KM-20L2 12 µM | LXFL 529 14.3 µM | DMS-114 12.4 µM | XF498 17.9 µM | DLD-1 16.2 µM

CC1=C(C#N)C(N)=C2C(C)=C(C#N)C(N)=C12
inactive: DMS-273 > 100 µM | SNB-78 > 100 µM | KM-20L2 > 100 µM | LXFL 529 > 100 µM | DMS-114 > 100 µM | XF498 > 100 µM | DLD-1 > 100 µM

N#C/C(=C/c1cccc(Oc2ccccc2)c1)c1ccccc1
inactive: SNB-78 > 100 µM | LXFL 529 > 100 µM | HOP-18 > 100 µM | DMS-114 51.8 µM | XF498 > 100 µM | DLD-1 > 100 µM

COc1ccc(/C=C\c2cc(OC)c(OC(C)=O)c(OC)c2)cc1
inactive: DMS-273 5.31 µM | SNB-78 25.5 µM | KM-20L2 29.5 µM | RXF 631 23.5 µM | LXFL 529 19.7 µM | DMS-114 4.78 µM | XF498 30.3 µM | DLD-1 14.2 µM

O=C(O)CCNS(=O)(=O)c1ccc([N+](=O)[O-])cc1
inactive: DMS-273 > 100 µM | KM-20L2 > 100 µM | RXF 631 > 100 µM | LXFL 529 > 100 µM | HOP-18 > 100 µM | XF498 > 100 µM | DLD-1 > 100 µM

CCOC(=O)C1S/C(=N\c2ccc(Cl)c(Cl)c2)N=C1C (stereo unspecified)
inactive: DMS-273 41.2 µM | KM-20L2 20.9 µM | RXF 631 58.6 µM | LXFL 529 34.4 µM | HOP-18 96.8 µM | XF498 35.6 µM | DLD-1 25.1 µM

CCO/C=C\C12CCCC1NC(c1ccccc1)(c1ccccc1)O2 (stereo unspecified)
inactive: DMS-273 32.7 µM | SNB-78 54.8 µM | KM-20L2 23.1 µM | LXFL 529 28.1 µM | DMS-114 30.6 µM | DLD-1 32.3 µM

N/C(=N\N=C=C1C(=O)Nc2ccc(F)cc21)NO
inactive: DMS-273 > 100 µM | SNB-78 > 100 µM | RXF 631 > 100 µM | LXFL 529 > 100 µM | DMS-114 > 100 µM | XF498 > 100 µM | DLD-1 > 100 µM

COC(=O)N1[C@H]2Cc3c(OC)c(C)c(OC)c(OC)c3[C@@H]1/C(=C\c1cc(OC)c(OC)c(C)c1OC)N(Cc1ccccc1)C2=O
inactive: DMS-273 13.2 µM | KM-20L2 46.2 µM | LXFL 529 22 µM | HOP-18 41.8 µM | DMS-114 14.7 µM | DLD-1 76.9 µM

Oc1ncnc2c1nnn2CCCCCCCCCCCCn1nnc2c(O)ncnc21
inactive: DMS-273 27.5 µM | SNB-78 19.2 µM | KM-20L2 > 100 µM | LXFL 529 33.6 µM | HOP-18 24.2 µM | DMS-114 7.06 µM | DLD-1 > 91.2 µM
